Assays:
Format in all cases: cell-based
[1] = tested on: Botrytis cinerea; assay: Spore germination test; details: BC, 48 hours
Outline: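 Compound in acetone was mixed into water agar at final 40, 10, 2.5 and 1 ppm and poured into quadrant dishes. Quadrants received spore suspension, while Erysiphe polygoni and Uromyces phaseoli spores were brushed on from infected leaves. After 48 h at 24 °C, the percentage of germinated spores was converted to a germination rating.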

[2] = tested on: Cladosporium cucumerinum; assay: Spore germination test; details: CC, 48 hours
Outline: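 Compound in acetone mixed into water agar at 40, 10, 2.5 and 1 ppm; plates seeded with spore suspension and incubated 48 hours at 24 °C. Percentage germinated spores counted and converted into a germination rating.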

[3] = tested on: Pythium ultimum; assay: Mycelial growth test; details: Globisporangium ultimum, 72 h, PU, read-out: Percent Fungus Growth Inhibition

Compound	Spore Germination Rating ([1]; 1.0 ppm)	Spore Germination Rating ([1]; 2.5 ppm)	Spore Germination Rating ([1]; 10 ppm)	Spore Germination Rating ([1]; 40 ppm)	Spore Germination Rating ([2]; 1.0 ppm)	Spore Germination Rating ([2]; 2.5 ppm)	Spore Germination Rating ([2]; 10 ppm)	Spore Germination Rating ([2]; 40 ppm)	inhibition at 5 ppm [3] [%]	inhibition at 10 ppm [3] [%]	inhibition at 20 ppm [3] [%]	inhibition at 40 ppm [3] [%]
CC(=O)Nc1cccc(Oc2nsnc(Cl)c2=O)c1 [Compound 42, 3-[(3-N--acetylamino)-phenoxy]-5-chloro-4H--1,2,6-thiadiazin-4-one]	4 (80-100)	4 (80-100)	4 (80-100)	1 (10-40)	4 (80-100)	4 (80-100)	3 (60-80)	0 (0-10)	0	42	100	100
CC(=O)Nc1ccccc1Oc1nsnc(Cl)c1=O [Compound 43, 3-[(2-acetylamino)-phenoxy]-5-chloro-4H--1,2,6-thiadiazin-4-one]	4 (80-100)	4 (80-100)	4 (80-100)	3 (60-80)	4 (80-100)	4 (80-100)	2 (40-60)	0 (0-10)	0	0	0	0
O=c1c(Cl)nsnc1Oc1cccc(C(F)(F)F)c1 [Compound 44, 3-chloro-5-[(3-trifluoromethyl)phenoxy]-4H--1,2,6-thiadiazin-4-one]	4 (80-100)	3 (60-80)	0 (0-10)	0 (0-10)	1 (10-40)	0 (0-10)	0 (0-10)	0 (0-10)	100	100	100	100
O=C(O)Cc1ccccc1Oc1nsnc(Cl)c1=O [Compound 45, 3-(2-carboxymethylphenoxy)-5-chloro-4H--1,2,6-thiadiazin-4-one]	4 (80-100)	4 (80-100)	4 (80-100)	2 (40-60)	4 (80-100)	4 (80-100)	2 (40-60)	0 (0-10)	0	42	69	100
N#CCc1ccc(Oc2nsnc(Cl)c2=O)cc1 [Compound 46, 3-chloro-5-[(4-cyanomethyl)-phenoxy]4H--1,2,6-thiadiazin-4-one]	4 (80-100)	3 (60-80)	3 (60-80)	0 (0-10)	4 (80-100)	0 (0-10)	0 (0-10)	0 (0-10)	0	40	87	100
CC(=O)c1ccc(Oc2nsnc(Cl)c2=O)cc1 [Compound 47, 3-(4-acetylphenoxy)-5-chloro-4H--1,2,6-thiadiazin-4-one]	4 (80-100)	1 (10-40)	0 (0-10)	0 (0-10)	0 (0-10)	0 (0-10)	0 (0-10)	0 (0-10)	71	100	100	100
CC(=O)c1cccc(Oc2nsnc(Cl)c2=O)c1 [Compound 48, 3-(3-acetylphenoxy)-5-chloro-4H--1,2,6-thiadiazin-4-one]	4 (80-100)	4 (80-100)	0 (0-10)	0 (0-10)	0 (0-10)	0 (0-10)	0 (0-10)	0 (0-10)	78	42	100	100
CC(=O)c1ccccc1Oc1nsnc(Cl)c1=O [Compound 49, 3-(2-acetylphenoxy)-5-chloro-4H--1,2,6-thiadiazin-4-one]	1 (10-40)	1 (10-40)	0 (0-10)	0 (0-10)	0 (0-10)	0 (0-10)	0 (0-10)	0 (0-10)	47	87	96	100
O=C(O)c1ccc(Oc2nsnc(Cl)c2=O)cc1 [Compound 50, 3-(4-carboxyphenoxy)-5-chloro-4H--1,2,6-thiadiazin-4-one]	4 (80-100)	4 (80-100)	4 (80-100)	4 (80-100)	3 (60-80)	3 (60-80)	3 (60-80)	2 (40-60)	20	0	47	100
COc1ccc(Cl)c(Oc2nsnc(Cl)c2=O)c1 [Compound 51, 3-chloro-5-[(2-chloro-5-methoxy)phenoxy]-4H--1,2,6-thiadiazin-4-one]	4 (80-100)	3 (60-80)	0 (0-10)	0 (0-10)	3 (60-80)	0 (0-10)	0 (0-10)	0 (0-10)	0	31	91	100
COc1cc(Cl)cc(Oc2nsnc(Cl)c2=O)c1 [Compound 52, 3-chloro-5-[(3-chloro-5-methoxy)phenoxy]-4H--1,2,6-thiadiazin-4-one]	4 (80-100)	3 (60-80)	0 (0-10)	0 (0-10)	4 (80-100)	0 (0-10)	0 (0-10)	0 (0-10)	4	60	100	100
O=c1c(Cl)nsnc1Oc1ccc([N+](=O)[O-])cc1Cl [Compound 53, 3-chloro-5-(2-chloro-4-nitrophenoxy)-4H--1,2,6-thiadiazin-4-one]	3 (60-80)	0 (0-10)	0 (0-10)	0 (0-10)	0 (0-10)	0 (0-10)	0 (0-10)	0 (0-10)	20	82	100	100
Cc1cc(Oc2nsnc(Cl)c2=O)ccc1Cl [Compound 54, 3-chloro-5-(4-chloro-3-methylphenoxy)-4H--1,2,6-thiadiazin-4-one]	4 (80-100)	4 (80-100)	2 (40-60)	1 (10-40)	2 (40-60)	0 (0-10)	0 (0-10)	0 (0-10)	42	60	71	87
Cc1cc(Cl)ccc1Oc1nsnc(Cl)c1=O [Compound 55, 3-chloro-5-(4-chloro-2-methylphenoxy)-4H--1,2,6-thiadiazin-4-one]	4 (80-100)	3 (60-80)	1 (10-40)	1 (10-40)	2 (40-60)	1 (10-40)	0 (0-10)	0 (0-10)	42	64	33	47
Cc1ccc(Oc2nsnc(Cl)c2=O)c(Br)c1 [Compound 57, 3-[(2-bromo-4-methyl)-phenoxy]-5-chloro-4H--1,2,6-thiadiazin-4-one]	3 (60-80)	1 (10-40)	0 (0-10)	0 (0-10)	3 (60-80)	0 (0-10)	0 (0-10)	0 (0-10)	42	60	100	100
Cc1cc(Cl)c(Oc2nsnc(Cl)c2=O)cc1C [Compound 58, 3-chloro-5-[(2-chloro-4,5-dimethyl)phenoxy]-4H--1,2,6-thiadiazin-4-one]	3 (60-80)	0 (0-10)	0 (0-10)	0 (0-10)	3 (60-80)	0 (0-10)	0 (0-10)	0 (0-10)	13	24	0	13
Cc1cc(Oc2nsnc(Cl)c2=O)cc(C)c1Cl [Compound 59, 3-chloro-5-[(4-chloro-3,5-dimethyl)phenoxy]-4H--1,2,6-thiadiazin-4-one]	4 (80-100)	4 (80-100)	4 (80-100)	3 (60-80)	1 (10-40)	0 (0-10)	0 (0-10)	0 (0-10)	0	0	0	29
Cc1cc(Oc2nsnc(Cl)c2=O)cc(C)c1Br [Compound 60, 3-[(4-bromo-3,5-dimethyl)-phenoxy]-5-chloro-4H--1,2,6-thiadiazin-4-one]	4 (80-100)	3 (60-80)	3 (60-80)	3 (60-80)	0 (0-10)	0 (0-10)	0 (0-10)	0 (0-10)	9	0	0	13
